{"source": "patent US20250171821A1", "about": "“HIF-1 ACTIVATORS AND USES THEREOF” (Ramot at Tel-Aviv University Ltd., priority 2022, published 2025)", "key": {"[1]": {"system": "NIH/3T3 cell line", "assay": "Collagen type 1 immunofluorescence in NIH/3T3 cells (Incucyte)", "format": "cell-based, mouse", "method": "(§1) Embryonic mouse fibroblast NIH/3T3 cell line (ATCC) were seeded at a concentration of 50*10^3 cells/well on 96 well glass bottom plate (P96-1.5H-N, Cellvis) for the immunofluorescence experiment and on cell culture microplate, 96 well, PS, F-Bottom (655090, greiner) for the viability experiment. The cells were cultured with Dulbecco's modified Eagle's medium (DMEM) supplemented with 10% fetal calf serum, 1% Penicillin-Streptomycin solution and 1% L-glutamine (All purchased from Rhenium). At 24 hours post seeding, cells were treated for another 48 hours by replacing them with the cell medium supplemented with a serial dilution (5-0.02 μM, factor dilution of 2) of the ML228, Daprodustat, Enarodustat, Molidustat, Vadadustat or Roxadustat molecules dissolved in DMSO. The final DMSO concentration in the cell medium was 0.01%. Cells were maintained in an incubator at 37° C. in a humidified atmosphere containing 5% CO2.\nAt 48 hours post treatment with either Daprodustat, Enarodustat, Molidustat, Vadadustat or Roxadustat, cells were fixed for 10 minutes together with their media with 8% paraformaldehyde (PFA, Electron Microscopy Sciences) dissolved in phosphate-buffered saline (PBS, Invitrogen) to a final concentration of 4% PFA, without any wash to avoid cells detachment from the glass. Cells were briefly washed four times with ice-cold PBS to remove the PFA and kept overnight at 4° C. The following day, a blocking solution which contains 1.5% Bovine Serum Albumin (Sigma Aldrich) dissolved in PBS was applied for 30 minutes, followed by an overnight incubation at 4° C. with recombinant rabbit anti-mouse Collagen-I 1° antibody (primary Ab) [EPR24331-53] (ab270993, Abcam), dissolved in the blocking solution (1:1000 dilution). The following day, cells were washed for 3 times with PBS (5 minutes each), followed by immunostaining with goat anti-rabbit IgG H&L (Alexa Fluor® 488) 2° antibody (secondary Ab) (ab150077, Abcam) dissolved in blocking solution (1:1000 dilution). Cells were washed again for 3 times with PBS (5 minutes each), stained for 30 minutes with DRAQ5™ (ab108410, Abcam) for nuclei staining dissolved in PBS (1:1000 dilution), and washed once again with PBS. For the ML228 experiment, cells were washed with PBS before applying 4% PFA dissolved in PBS. Then, fixed cells were additionally permeabilized with 0.2% Triton™ X-100 (Merck) dissolved in PBS, additionally stained with Phalloidin-Atto 594 (51927, Sigma Aldrich) for F-Actin staining for 1 hour (1:250 dilution) together with the aforementioned secondary antibody, followed by 10 minutes incubation with DAPI staining solution (ab228549, Abcam) for nuclei staining dissolved in PBS (1:1000 dilution).\nImages were taken using a ZEISS LSM 900 in wide-field or in the LSM confocal detection mode (ML228 experiment), using Zen 3.1. Fluorescence readouts were obtained at excitation/emission: 353/465 nm (DAPI), 493/517 nm (Collagen-I), 590/618 (F-Actin) and 647/683 nm (DRAQ5) using a Plan-Apochromat 20×/0.8 M27 objective.\nImage acquisition and quantification were performed by Incucyte SX5 (Sartorius) using software version 2022B Rev2. A standard scan was done for 9 images per well using 20× objective, 2 optical modules (green at excitation/emission of 453-485 nm/494-533 nm in 300 msec acquisition time, and near-IR at excitation/emission of 648-674 nm/685-756 nm in 400 msec acquisition time, including Phase channel) following immunofluorescence protocol. For the image analysis, 2-6 replicates per condition were used. Using the Basic Analyzer mode, “Phase Object Confluence (%)” was acquired using the Phase channel. This measurement is the percentage of the image area occupied by cells. “Total Collagen-I Integrated Intensity Per Image (GCU×μm^2/Image)” was acquired using the green optical module. GCU stands for Green calibrated Unit, while this measurement is the total sum of the Collagen-I objects' fluorescent intensity in the image. “#Cells (Per image)” was acquired by the near-IR optical module. […]"}, "[2]": {"system": "NIH/3T3 cell line", "assay": "Alamar blue viability assay in NIH/3T3 cells", "format": "cell-based, mouse", "settings": "0.31-5 μM ML228, 48 hours, p<0.0001", "method": "as §1, with “Cells were maintained in an incubator at 37° C. in a humidified atmosphere containing 5% CO2.” left out\nFor the ML228 experiment, at 48 hours post treatment, cells were stained by replacing the cell medium with Alamar blue (Enco, Petach Tikvah, Israel) diluted 1:10 in the cell medium, and incubated for 4 hours (37° C., 5% CO2). Then, fluorescence readouts were obtained using the Spark multimode microplate reader (Tecan) at excitation/emission 540±20 nm/590±20 nm. Cell viability was calculated as the percentage difference of treated cells with ML228 relative to the control cells at 590±20 nm emission."}, "[3]": {"system": "HIF-1α, Collagen-I protein levels in fibroblast cells", "assay": "Western blot of HIF-1α and Collagen-I in fibroblast lysate", "format": "cell-based, human", "method": "Cells at a density of 50,000 cells/well in a 24-well plate were cultured for 2 days with variable ML228 concentrations. Cells were sonicated and lysed in a buffer containing 20 mM Tris-HCL pH=7.5 with a protease inhibitor (Abcam, Cambridge, UK) or a protease inhibitor from Merck (539134, Merck). Equal amounts (1 μg) of total protein were loaded and tested using Western blotting. Samples were divided for testing native samples and denaturative samples, which were dependent on each antibody recognition sites. Samples size was separated by a 6% sodium dodecyl sulfate (SDS) gel and transferred to nitrocellulose membranes that was further incubated overnight with primary antibodies of HIF-1α, and β-tubulin. As for detecting Collagen-I, samples were prepared in native conditions absent of SDS and β-mercaptoethanol. Thereafter, samples were separated by a native gel. Detection of Collagen-I was done in 6% native gel enabling observation of non-denatured structural collagen and preventing thermal degradation of the heat sensitive collagen. After extensive washing with TBST (Tris-buffered saline supplemented with 0.1% Tween-20), the membrane was further incubated with an HRP-conjugated secondary antibody for 1 hour. Chemiluminescence values were read after the addition of ECL substrate in a ChemiDoc imager (Biorad CA, USA)."}}}
{"smiles": "c1ccc(-c2ccc(CNc3nc(-c4ccccn4)nnc3-c3ccccc3)cc2)cc1", "note": "[ML228, N-([1,1′-Biphenyl]-4-ylmethyl)-6-phenyl-3-(2-pyridinyl)-1,2,4-triazin-5-amine]", "values": [{"measurement": "Collagen type 1 normalized to cells confluence vs untreated cells", "setting": "[1]; 5 μM ML228, 48 hours, p<0.05", "result": "reduction"}, {"measurement": "concentrations with significant increase of Collagen type 1 normalized to cells confluence vs untreated cells", "setting": "[1]; 48 hours, one-way ANOVA, p<0.05 to p<0.0001", "result": "0.31 to 2.5", "unit": "µM"}, {"measurement": "viability compared to untreated cells", "setting": "[2]", "result": "lower viability"}, {"measurement": "HIF-1α protein level", "setting": "[3]; increasing concentrations of ML228, 48 hours", "result": "higher levels"}, {"measurement": "Collagen-I protein level", "setting": "[3]; increasing concentrations of ML228, 48 hours, native gel", "result": "higher levels"}, {"measurement": "HIF-1α protein level", "setting": "[3]; low doses of ML228, 48 hours", "result": "no HIF-1α protein is observed"}]}
